Consider two substances from patent US20250207127A1, “PHYTOECDYSONES AND/OR 20-HYDROXYECDYSONE DERIVATIVES IN COMBINATION WITH AN ACTIVE INGREDIENT FOR RESTORING SMN EXPRESSION, FOR USE IN THE TREATMENT OF SPINAL MUSCULAR ATROPHY” (BIOPHYTIS, priority 2021, published 2025).

Strand notation (5' to 3'): a small letter for the sugar, then the base; units joined by * are phosphorothioate-linked, units joined directly phosphodiester-linked; [ ] holds rarer units or linkages, { } end groups; capitals alone tell only the bases. e = 2'-O-(2-methoxyethyl) (MOE); [5mC] = 5-methylcytosine

Format in all cases: in vivo, mouse
For data set [1], the system named is SMA mice (Smn^Δ7/Δ7; huSMN2^+/−). Briefly: Grip-test (muscle fatigability) of SMA mice. The settings on record: relative to mismatch ASO. How it is done:
(§1) On the day of injection, the ASO stock solution is diluted to the concentration of 2 μg/μL in 0.9% NaCl. Methylene blue 0.04% is added to the solution as an injection control. Newborn SMA mice receive a single dose of ASO 10-27 or ASO mismatch of 8 μg on the 1st post-natal day (PO) by unilateral intra-cerebro-ventricular injection using a Hamilton syringe and a 32G needle. The injection site is located 1 mm from the sagittal suture, between bregma and lambda, landmarks visible through the skin at PO. The needle is positioned perpendicular to the injection site on the surface of the skin and inserted approximately 3 mm deep to reach the lateral ventricle.
(§2) The complementary treatment BIO101 complexed with cyclodextrin is administered daily to the mice from the first post-natal day (PO) orally at a dose of 50 mg/kg using a pipette.
(§3) We performed phenotypic analyses of severe SMA type 2 mice treated with BIO101 alone or a mismatch ASO or ASO 10-27 alone, or with an ASO 10-27+BIO101 combined treatment from PO. […] We, on the one hand, evaluated the movement capacities by the open-field test (FIG. 3), as well as the muscular fatigability by grip-test (FIG. 4), as previously described (Biondi et al., 2008; Branchu et al., 2013; Chali et al., 2016).
In order to assess the muscle fatigability, the grip strength of the mice's forelimbs was tested. […] The time spent hanging on is recorded. […]

Data set [2] has the same test system. The experiment in a line: Survival of severe SMA mice treated from P0.
Source text: (§4) The antisense oligonucleotide (ASO) of sequence SEQ ID NO: 23 (5′-TCACTTTCATAATGCTGG-3′), of reference ISIS 396443, also known under the name ISIS-SMNRx, and called in the remainder of the description ASO 10-27, complementary to 18 bases (bases 10 to 27) of intron 7 of the SMN2 gene (targeting a site in intron 7, called ISS-N1, which represses the inclusion of exon 7 of the pre-messenger RNA (pre-mRNA) of the SMN2 gene) having modified nucleotides 2′-O-methoxyethyl on the 2′ carbon atom of deoxyribose for each base, with a phosphorothioate backbone and 5-methyl cytosines and the control ASO (denoted mismatch) of sequence SEQ ID NO°: 24 (5′-TTAGTTTAATCACGCTCG-3′) (Singh et al. 2006; Williams et al. 2009), were synthesised and purified as previously described (Baker et al. 1997, Hua et al. 2008; Passini et al., 2011). The oligonucleotides are resuspended at a concentration of 8 μg/μL in 0.9% NaCl and stored at −20° C.
as §1, §2
(§5) A severe SMA mouse model was used on a FVB/NRj genetic background, characterised by the invalidation of exon 7 of the murine Smn gene and expressing two copies of the human SMN2 transgene (Smn^Δ7/Δ7; huSMN2−/+) (Hsieh et al., 2000). The mice resulting from these crosses having the genotype “FVB/NRj-Smn^Δ7/Δ7 huSMN2−/+2 copies” are described as “SMA” (Hsieh et al., 2000). SMA mice were treated with either BIO101 alone or a mismatch ASO or an ASO 10-27 alone, or with an ASO 10-27+BIO101 combined treatment starting from PO. Survival (FIG. 1) and weight

For data set [3] the test system is unchanged. Briefly: Open-field test (movement capacities) of SMA mice. Particulars: at P15, 5 minutes, mean±SEM. How it is done: as §1, with “ventricle. […]” for “ventricle.”
as §3
The device used for open-field testing consists of a plastic box measuring 28×28×5 cm with a field grid divided into 16 tiles measuring 7 cm×7 cm. […] The behavioural measurements were recorded by the experimenter during these 5 minutes and the total number of crossed tiles was recorded.

Data set [4] has the same test system. The experiment in a line: Weight evolution of severe SMA mice treated from P0. Particulars: relative to mismatch ASO.
Source text: as §4, §1, §2, §5

Where [5] appears, read: SMA mice, ASO 8 μg single ICV injection at P0, BIO101 50 mg/kg oral daily from P0.

“5′-TCACTTTCATAATGCTGG-3′ (antisense eT*e[5mC]*eA*e[5mC]*eT*eT*eT*e[5mC]*eA*eT*eA*eA*eT*eG*e[5mC]*eT*eG*eG) [ASO 10-27, antisense oligonucleotide complementary to bases 10 to 27 of intron 7 of the SMN2 gene]”: the “improvement of resistance to fatigue (grip-test)” value in data set [1] (at P7) was “not improved”; in data set [1] (at P15) it was 7.7%. In data set [2] (setting [5]), this substance gave a median survival of 18 days. For the same substance, the “improvement in animal survival” value in data set [2] (median survival compared to mismatch ASO control group) came out at 38%. The “total number of crossed tiles (open field)” value in data set [3] came to 70±20 tiles. Further, the “increase of average weight” value in data set [4] (at P7) is “does not increase”; in data set [4] (at P8), 9.9%; in data set [4] (at P9), 13.9%; in data set [4] (at P10), 16%.
Take “5′-TTAGTTTAATCACGCTCG-3′ (listed as DNA, chemistry not given here) [mismatch ASO, control ASO (denoted mismatch)]”: in data set [2] (setting [5]), the “average lifespan of the mouse pups” value stood at 13 days and the median survival turned out to be 13 days.
